Data: US12377069B2, “Compounds, compositions, methods of using, and methods for preparing compounds” (UNIVERSITY OF LOUISVILLE RESEARCH FOUNDATION, INC., priority 2018, dated 2025)

How the values were obtained:
[1] = tested on: Caco2 or HT29 cells; assay: In vitro FITC-dextran permeability assay; type: cell-based, human; details: pretreatment 50 μM 24 h; LPS 50 ng/ml 2 h
Description: In vitro permeability study: For in vitro cellular permeability studies, Caco2 cells or HT29 cells (2×10^4 cells/cm^2) were seeded in 24-well Transwell® plates (Cornings; USA), on polyester membrane filters (pore size 0.4 μm, surface area 1.12 cm^2) (KOWAPRADIT et al. (2010) “In vitro permeability enhancement in intestinal epithelial cells (Caco-2) monolayer of water soluble quaternary ammonium chitosan derivatives” Aaps Pharmscitech, Vol. 11, pp. 497-508). Culture medium was added to both apical and basal chamber and the medium was changed every other day up to 21 days for Caco2 cells or 5-7 days for HT29 cells. For Caco2 cells, transepethelial electrical resistance (TEER) was calculated using EMD Millipore Millicell-ERS2 Volt-Ohm Meter (Millipore). Filters (with cell monolayer) showing more than 600 Ω·cm^2 were used for permeability study. After cells reach desired confluence (monolayered cells), cells were pre-treated with vehicle (0.01% DMSO) UroA (50 μM) and UAS03 […] for 24 hours. After treatment, monolayer was washed with PBS to remove any residual drug and 200 μL of LPS (50 ng/ml in HBSS) was added to each well and incubated for 2 hours. […] After 2 h, a sample from the basal chamber was withdrawn and FD4 concentration was determined using fluorescence 96-wells plate reader at excitation and emission wavelengths were 480 and 525 nm, respectively.

[2] = tested on: Cyp1A1; assay: Cyp1A1 expression and enzyme activity in vitro (P450-Glo, EROD); type: cell-based, human; details: for Cyp1A1 enzyme activity in colon epithelial cells: HT29, 24 h, P450-Glo and EROD
Description: Measurment of Cyp1A1 enzyme activities in vitro. EROD assay: HT-29 cells (15,000 cells/well) treated with vehicle, UroA and UAS03 (24 hrs), were rinsed with HBSS buffer, and then fresh HBSS buffer was added along with 5 μM of 7-ethoxyresorufin. Cells were further incubated at 37° C. for 1 h. After the incubation time, fluorescence (Exc. 530 nm, Em. 580 nm) was measured and product (resorufin) formed was calculated from calibration standard and normalized with protein concentration.
P450-Glo Cyp1A1 luminiscence assay: HT29 cells (25,000 cells/well) were plated in 48 well plate. Cell were then treated with UroA (0.1, 1, 10, 25 and 50 μM) or UAS03 (0.1, 1, 10, 25 and 50 μM) or FICZ (0.1, 1, 10, 25 and 50 nM) for 24 hrs. After treatment, cells were washed to remove any residual drugs, and fresh medium containing Cyp1A1 substrate (as per protocol provided with kit Cat. #V8751; Promega) for 3 hr. After incubation, 25 μl of culture medium was removed from each well and transferred to a 96-well white opaque plate and 25 μl of luciferin detection reagent was added to initiate the luminescence reaction and plate was incubated at room temperature for 20 min. After incubation, luminescence was recorded in luminometer. The data reported as fold change over vehicle treatment.

[3] = tested on: 5FUR HCT116 cells; assay: EMT markers in colon cancer cells (Western blot); type: cell-based; details: for EMT markers ZO-1, E-Cadherin, Snail, β-catenin: 5FUR HCT116, 72 h, in the presence of 5FU
Description: FIG. 41: Western blot analysis of EMT markers in 5FUR HCT116 cells in treated (72 h) with 5FU in the presence or absence of UroA/UAS03.
UroA/UAS03 treatment reduce epithelial-mesenchymal transitions (EMT) signature in 5FU resistant (5FU R) colon cancer cells: We examined EMT markers in 5FU sensitive (parent) and 5FU resistant (5FUR) HCT116 colon cancer cell lines. […] The reciprocal expression of these molecules are hallmarks of EMT signature. Next, we examined whether treatment with UroA/UAS03 can reverse these patterns in 5FUR cells. […] One of the mechanisms by which cancer cells acquire chemoresistant phenotype is by the induction of drug transporters such as Multidrug resistance-associated protein 2 (MRP2), ATP-binding cassette (ABC) drug efflux transporter proteins, BCRP and P-gycoprotein (P-gp).

[4] = tested on: HeLa cells; assay: Autophagy induction (RFP-GFP-LC3); type: cell-based; details: 2 hours treatment
Description: Autophagy induction after compound treatment for 2 hours is assessed by the presence of red and green punctate inside the cells. The HeLa cells were transfected with RFP-GFP-LC3 plasmid 48 hours prior to drug treatments. After drug treatment for 2 hours the cells are fixed and imaged. LC3 is a protein that is expressed on autophagosomes and is seen as green puncta. When the autophagosome and lysosome fuse to form autolysosomes, the acidic pH inside of it causes degradation of GFP protein and only red puncta are visible (FIG. 26).

[5] = tested on: Human Umbilical Vein Endothelial Cells (HUVECs); assay: HUVEC CDH5 expression and in vitro permeability; type: cell-based

`Oc1ccc2c(c1)COc1cc(O)ccc1-2` [UAS03, 6H-benzo[c]chromene-3,8-diol] was tested, and the “LPS induced leakage of FITC-dextran into bottom chambers” value [1] was “inhibited LPS induced leakage”, the “Cyp1A1 enzyme activity in colon epithelial cells” value [2] was “induced Cyp1A1 activity” and the “EMT markers ZO-1, E-Cadherin, Snail, β-catenin” value [3] was “upregulated ZO-1, E-Cadherin, and down regulated Snail and β-catenin”. The autophagy induction [4] was “induce autophagy” and the “expression of CDH5 (VE-Cadherin)” value [5] was “increased the expression of CDH5”.
With `O=c1oc2cc(O)ccc2c2ccc(O)cc12` [UroA, 3,8-dihydroxy-6H-dibenzo[b,d]pyran-6-one] the “LPS induced leakage of FITC-dextran into bottom chambers” value [1] was “inhibited LPS induced leakage”, the “Cyp1A1 expression (RNA-Seq and real time PCR)” value ([2]; HT29, 50 μM, 24 h) was “upregulated” and the “Cyp1A1 enzyme activity in colon epithelial cells” value [2] was “induced Cyp1A1 activity”. The “EMT markers ZO-1, E-Cadherin, Snail, β-catenin” value [3] was “upregulated ZO-1, E-Cadherin, and down regulated Snail and β-catenin”, the “expression of E-cadherin” value ([3]; colon cancer cell lines) was “enhanced the expression of E-cadherin” and the autophagy induction [4] was “induce autophagy”. For the same compound, the “expression of CDH5 (VE-Cadherin)” value [5] was “increased the expression of CDH5”.
